Source: the NIST ThermoML archive (doi:10.1016/j.jct.2003.11.008)
Numbers after ± are expanded uncertainties.

Legend:
[1] = xn = mol fraction of the nth substance listed; details: 318.15 K, 101.3 kPa, Liquid
[2] = excess molar enthalpy (molar enthalpy of mixing); xn = mol fraction of the nth substance listed; details: 318.15 K, 101.3 kPa, Liquid

CCCCCCCCC [nonane] + COC(C)=O
Details | excess molar enthalpy [kcal/mol] | excess molar volume [m3/mol]
[1], x2 = 0.1052 | – | 6.91e-07 ± 1.9e-08
[1], x2 = 0.2035 | – | 1.199e-06 ± 2.1e-08
[1], x2 = 0.2896 | – | 1.534e-06 ± 2.3e-08
[1], x2 = 0.3598 | – | 1.693e-06 ± 2.3e-08
[1], x2 = 0.4249 | – | 1.805e-06 ± 2.4e-08
[1], x2 = 0.4901 | – | 1.864e-06 ± 2.4e-08
[1], x2 = 0.547 | – | 1.881e-06 ± 2.4e-08
[1], x2 = 0.5991 | – | 1.837e-06 ± 2.4e-08
[1], x2 = 0.6418 | – | 1.774e-06 ± 2.4e-08
[1], x2 = 0.6901 | – | 1.658e-06 ± 2.3e-08
[1], x2 = 0.7312 | – | 1.562e-06 ± 2.3e-08
[1], x2 = 0.7687 | – | 1.431e-06 ± 2.2e-08
[1], x2 = 0.7969 | – | 1.305e-06 ± 2.2e-08
[1], x2 = 0.8736 | – | 9.39e-07 ± 2e-08
[1], x2 = 0.925 | – | 6.28e-07 ± 1.8e-08
[1], x2 = 0.9663 | – | 3.07e-07 ± 1.7e-08
[2], x2 = 0.0822 | 0.131 ± 0.00239 | –
[2], x2 = 0.1628 | 0.241 ± 0.00406 | –
[2], x2 = 0.2353 | 0.335 ± 0.0055 | –
[2], x2 = 0.2999 | 0.398 ± 0.00645 | –
[2], x2 = 0.364 | 0.448 ± 0.00741 | –
[2], x2 = 0.4195 | 0.481 ± 0.00789 | –
[2], x2 = 0.4714 | 0.497 ± 0.00813 | –
[2], x2 = 0.5122 | 0.504 ± 0.00813 | –
[2], x2 = 0.549 | 0.507 ± 0.00813 | –
[2], x2 = 0.5847 | 0.506 ± 0.00813 | –
[2], x2 = 0.621 | 0.502 ± 0.00813 | –
[2], x2 = 0.6618 | 0.49 ± 0.00789 | –
[2], x2 = 0.7017 | 0.463 ± 0.00765 | –
[2], x2 = 0.7452 | 0.433 ± 0.00717 | –
[2], x2 = 0.7891 | 0.388 ± 0.00645 | –
[2], x2 = 0.8353 | 0.343 ± 0.00574 | –
[2], x2 = 0.8771 | 0.289 ± 0.00478 | –
[2], x2 = 0.9219 | 0.208 ± 0.00359 | –
[2], x2 = 0.9643 | 0.103 ± 0.00203 | –

CCCCCCCCCCCCCCC [pentadecane] + CCCCCOC(C)=O
Details | excess molar enthalpy [kcal/mol] | excess molar volume [m3/mol]
[1], x2 = 0.097 | – | 2.96e-07 ± 1.7e-08
[1], x2 = 0.1823 | – | 5.2e-07 ± 1.8e-08
[1], x2 = 0.2485 | – | 6.56e-07 ± 1.9e-08
[1], x2 = 0.3223 | – | 7.83e-07 ± 1.9e-08
[1], x2 = 0.3863 | – | 8.63e-07 ± 2e-08
[1], x2 = 0.4452 | – | 9.09e-07 ± 2e-08
[1], x2 = 0.5075 | – | 9.32e-07 ± 2e-08
[1], x2 = 0.5553 | – | 9.44e-07 ± 2e-08
[1], x2 = 0.6017 | – | 9.31e-07 ± 2e-08
[1], x2 = 0.6519 | – | 9.05e-07 ± 2e-08
[1], x2 = 0.6946 | – | 8.56e-07 ± 1.9e-08
[1], x2 = 0.7436 | – | 7.87e-07 ± 1.9e-08
[1], x2 = 0.7672 | – | 7.53e-07 ± 1.9e-08
[1], x2 = 0.8482 | – | 5.78e-07 ± 1.8e-08
[1], x2 = 0.9107 | – | 3.7e-07 ± 1.7e-08
[1], x2 = 0.9606 | – | 1.78e-07 ± 1.6e-08
[2], x2 = 0.0764 | 0.0832 ± 0.00167 | –
[2], x2 = 0.1647 | 0.162 ± 0.00287 | –
[2], x2 = 0.2553 | 0.227 ± 0.00382 | –
[2], x2 = 0.3274 | 0.268 ± 0.00454 | –
[2], x2 = 0.3976 | 0.296 ± 0.00502 | –
[2], x2 = 0.4632 | 0.312 ± 0.00526 | –
[2], x2 = 0.5222 | 0.317 ± 0.00526 | –
[2], x2 = 0.5758 | 0.314 ± 0.00526 | –
[2], x2 = 0.6183 | 0.305 ± 0.00502 | –
[2], x2 = 0.6614 | 0.286 ± 0.00478 | –
[2], x2 = 0.7069 | 0.264 ± 0.00454 | –
[2], x2 = 0.7552 | 0.235 ± 0.00406 | –
[2], x2 = 0.8041 | 0.2 ± 0.00359 | –
[2], x2 = 0.856 | 0.158 ± 0.00287 | –
[2], x2 = 0.9056 | 0.111 ± 0.0021 | –
[2], x2 = 0.955 | 0.057 ± 0.00127 | –

CCCCCCCCCCCCCCC [pentadecane] + CCCCOC(C)=O
Details | excess molar enthalpy [kcal/mol] | excess molar volume [m3/mol]
[1], x2 = 0.1004 | – | 3.55e-07 ± 1.7e-08
[1], x2 = 0.1982 | – | 6.25e-07 ± 1.8e-08
[1], x2 = 0.2765 | – | 7.99e-07 ± 1.9e-08
[1], x2 = 0.3418 | – | 9.17e-07 ± 2e-08
[1], x2 = 0.417 | – | 9.97e-07 ± 2e-08
[1], x2 = 0.4757 | – | 1.034e-06 ± 2e-08
[1], x2 = 0.5299 | – | 1.057e-06 ± 2e-08
[1], x2 = 0.5843 | – | 1.052e-06 ± 2e-08
[1], x2 = 0.6319 | – | 1.024e-06 ± 2e-08
[1], x2 = 0.6767 | – | 9.8e-07 ± 2e-08
[1], x2 = 0.7173 | – | 9.26e-07 ± 2e-08
[1], x2 = 0.7606 | – | 8.62e-07 ± 2e-08
[1], x2 = 0.7836 | – | 8.17e-07 ± 1.9e-08
[1], x2 = 0.8619 | – | 5.97e-07 ± 1.8e-08
[1], x2 = 0.9208 | – | 3.91e-07 ± 1.7e-08
[1], x2 = 0.9647 | – | 1.72e-07 ± 1.6e-08
[2], x2 = 0.0884 | 0.0988 ± 0.00191 | –
[2], x2 = 0.1775 | 0.179 ± 0.00311 | –
[2], x2 = 0.2593 | 0.249 ± 0.0043 | –
[2], x2 = 0.3266 | 0.29 ± 0.00478 | –
[2], x2 = 0.3936 | 0.322 ± 0.00526 | –
[2], x2 = 0.4468 | 0.341 ± 0.00574 | –
[2], x2 = 0.4996 | 0.353 ± 0.00574 | –
[2], x2 = 0.5472 | 0.356 ± 0.00598 | –
[2], x2 = 0.5896 | 0.353 ± 0.00574 | –
[2], x2 = 0.6217 | 0.345 ± 0.00574 | –
[2], x2 = 0.6332 | 0.341 ± 0.00574 | –
[2], x2 = 0.6756 | 0.322 ± 0.00526 | –
[2], x2 = 0.7198 | 0.298 ± 0.00502 | –
[2], x2 = 0.7661 | 0.269 ± 0.00454 | –
[2], x2 = 0.8132 | 0.232 ± 0.00406 | –
[2], x2 = 0.8631 | 0.187 ± 0.00335 | –
[2], x2 = 0.9114 | 0.132 ± 0.00239 | –
[2], x2 = 0.9607 | 0.0673 ± 0.00143 | –

CCCCCCCCCCCCCCC [pentadecane] + CCCOC(C)=O
Details | excess molar enthalpy [kcal/mol] | excess molar volume [m3/mol]
[1], x2 = 0.0878 | – | 3.42e-07 ± 1.7e-08
[1], x2 = 0.1416 | – | 5.35e-07 ± 1.8e-08
[1], x2 = 0.2112 | – | 7.4e-07 ± 1.9e-08
[1], x2 = 0.3035 | – | 9.75e-07 ± 2e-08
[1], x2 = 0.3749 | – | 1.102e-06 ± 2.1e-08
[1], x2 = 0.4446 | – | 1.188e-06 ± 2.1e-08
[1], x2 = 0.5048 | – | 1.254e-06 ± 2.1e-08
[1], x2 = 0.5631 | – | 1.259e-06 ± 2.1e-08
[1], x2 = 0.6193 | – | 1.238e-06 ± 2.1e-08
[1], x2 = 0.6657 | – | 1.213e-06 ± 2.1e-08
[1], x2 = 0.742 | – | 1.093e-06 ± 2.1e-08
[1], x2 = 0.8073 | – | 9.36e-07 ± 2e-08
[1], x2 = 0.8769 | – | 6.9e-07 ± 1.9e-08
[1], x2 = 0.9297 | – | 4.51e-07 ± 1.8e-08
[1], x2 = 0.9673 | – | 2.26e-07 ± 1.7e-08
[2], x2 = 0.1056 | 0.137 ± 0.00263 | –
[2], x2 = 0.1903 | 0.23 ± 0.00406 | –
[2], x2 = 0.2687 | 0.303 ± 0.00502 | –
[2], x2 = 0.3385 | 0.354 ± 0.00598 | –
[2], x2 = 0.4042 | 0.389 ± 0.00645 | –
[2], x2 = 0.4596 | 0.409 ± 0.00669 | –
[2], x2 = 0.5101 | 0.421 ± 0.00693 | –
[2], x2 = 0.5521 | 0.421 ± 0.00693 | –
[2], x2 = 0.5935 | 0.416 ± 0.00693 | –
[2], x2 = 0.634 | 0.405 ± 0.00669 | –
[2], x2 = 0.674 | 0.389 ± 0.00645 | –
[2], x2 = 0.715 | 0.369 ± 0.00598 | –
[2], x2 = 0.7583 | 0.339 ± 0.00574 | –
[2], x2 = 0.8027 | 0.301 ± 0.00502 | –
[2], x2 = 0.8473 | 0.254 ± 0.0043 | –
[2], x2 = 0.8921 | 0.193 ± 0.00335 | –
[2], x2 = 0.9369 | 0.126 ± 0.00234 | –
[2], x2 = 0.9732 | 0.0589 ± 0.00134 | –
